Data set [1] relates to kidney disease model rats. Description: Action to survival time of kidney diseased animals. It counts as in vivo, Sprague-Dawley female rats. The note with it: 20 mg/kg/day per os, observation eight weeks (upper limit); control 5.0. How it is done:
The kidney disease model rats were prepared as in Example 115. Twenty-five groups (8 rats per group) were prepared in a manner so that there was no major difference between the groups in the serum creatinine value and the urea nitrogen value indicating renal function. The rats in each group were allowed to freely take up feed and water. […] To the rats in the control group, only water was forcedly administered per os every day. If kidney diseases are aggravated, the rat will die of uremia. Thus, the survival time was observed as comprehensive indication of the improvement effect on the kidney diseases. The observation period was eight weeks. Thus if all rats survived, the average survival time is eight weeks and it is an upper limit.

Data set [2] has as its target T1, angiotensin II receptor subtype 2 (AT2) (Bos taurus, UniProt G5E6F7).
T1 construct: receptor: from cerebellar cortex in bovine; from tissue; host or cells: bovine cerebellar cortex
T1 sequence (G5E6F7 1-362): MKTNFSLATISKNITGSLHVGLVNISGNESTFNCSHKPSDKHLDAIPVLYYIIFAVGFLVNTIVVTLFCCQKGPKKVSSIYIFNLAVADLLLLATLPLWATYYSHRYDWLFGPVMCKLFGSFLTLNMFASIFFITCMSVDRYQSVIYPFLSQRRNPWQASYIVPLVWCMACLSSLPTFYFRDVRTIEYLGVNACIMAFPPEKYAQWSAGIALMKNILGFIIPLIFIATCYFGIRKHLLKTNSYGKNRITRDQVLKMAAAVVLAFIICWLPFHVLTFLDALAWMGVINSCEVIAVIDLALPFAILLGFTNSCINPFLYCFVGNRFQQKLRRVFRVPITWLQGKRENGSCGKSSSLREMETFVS
Description: Binding assay, angiotensin II receptor subtype 2 (AT2). More on the design: species or system bovine (cerebellar cortex). The note with it: read-out: Binding inhibition % in 100 μm, AT2. The method, then: (§1) In this Example, the affinity to the angiotensin II receptor subtype 1 or subtype 2 was evaluated by a binding assay in accordance with the method described in Biochem. Pharmacol., 33, 4057-4062 (1984).
(§2) Specifically, the measurement of the total binding in the presence of each drug was performed as follows:
(§3) A mixture (final volume=0.25 ml) of a drug in a given concentration (the drug was dissolved in DMSO, and diluted to a double volume with a buffer attached to a drug discovery system to prepare sample for the assay; 0.025 ml), a tracer (0.025 ml), and receptors (0.2 ml) was incubated [in the case of the angiotensin II receptor subtype 1 (AT1), at room temperature for 3 hours, and in the case of the subtype 2 (AT2), at 37° C. for 1 hour]. Then, the reaction mixture was filtered with suction (GF/C filter was used in AT1, and GF/B filter was used in AT2). The filter papers after filtration with suction (the tracer bound to the receptors) were counted by a γ-well counter (ARC-500, Aloka). The non-specific bindings were measured by repeating the above method, except that a large excess amount of a displacer was added. The specific binding of the drug in the given concentration was calculated by subtracting the non-specific binding from the total binding, respectively.
(§4) In AT1 and AT2, the percentages to inhibit the bindings of radioactive ligands (tracer) to receptors by the drugs to be tested (IC50 value of concentration to show 50% inhibition, or binding inhibition % in 100 μM) were measured, using the drugs to be tested and control drugs in the given concentration.
receptor: from cerebellar cortex in bovine
tracer: ^125 ITyr^4angiotensin II
control drug: angiotensin II (human)
(displacer): angiotensin II (human)

Data set [3] addresses T2, angiotensin II receptor subtype 1 (AT1) (Oryctolagus cuniculus, UniProt P34976).
T2 construct: receptor: from adrenal glands in rabbits; from tissue; host or cells: rabbit adrenal glands
T2 sequence (P34976 1-359): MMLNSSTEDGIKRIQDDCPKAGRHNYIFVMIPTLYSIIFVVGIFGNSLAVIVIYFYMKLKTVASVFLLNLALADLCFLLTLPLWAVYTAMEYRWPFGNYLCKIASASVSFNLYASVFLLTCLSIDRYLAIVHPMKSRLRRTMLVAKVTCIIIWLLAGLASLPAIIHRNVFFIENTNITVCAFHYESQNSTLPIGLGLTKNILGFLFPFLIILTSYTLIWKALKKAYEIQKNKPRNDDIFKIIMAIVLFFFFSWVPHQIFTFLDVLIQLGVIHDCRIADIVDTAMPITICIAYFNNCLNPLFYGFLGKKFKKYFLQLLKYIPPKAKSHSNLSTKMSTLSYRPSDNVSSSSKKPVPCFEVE
Description: Binding assay, angiotensin II receptor subtype 1 (AT1). Details: species or system rabbit (adrenal glands). The note with it: for inhibition at 100 µM: AT1, rabbit adrenal glands. The method, then:
as §1, §2, §3, §4

In data set [4] the test system is kidney disease model rats. Description: Action to depress blood pressure (tail cuff method). It counts as in vivo, Sprague-Dawley female rats. The note with it: systolic, average, 20 mg/kg per os, two days from administration; control (water) 203. How it is done:
The compounds of the present invention and the reference substance were forcedly administered per os to kidney disease model rats, and the action to depress blood pressure was observed. The kidney disease model rats were prepared by ligature of branches of renal artery in accordance with the conventional method, that is, the left hilum renalis of Sprague-Dawley female rats was exposed under anesthesia, and one of four secondary branches of renal artery was left unligated, while the remaining three branches were ligated, respectively. After a week, the hilum renalis (artery, vein, and ureter) of the right kidney were further ligated to thereby prepare the rats whose renal function was lowered to approximately 1/8 of the normal function. Each group consisted of eight rats. The drugs to be tested (20 mg/kg) were administered to each administering group, and only water was administered to control group. After two days from the administration, the systolic blood pressure was measured by the tail cuff method using a blood pressure measuring apparatus (UR5000; Ueda).

The subject of the next data set is mice. Nature of the data set: Acute toxicity, single oral dose. It counts as in vivo. The method, then:
Five-week-old ICR female mice (5 mice per group) were bred for acclimation for a week. Then, the compounds of the present invention were dissolved or dispersed in an aqueous solution of 0.5% methylcellulose, and orally administered to the mice in a single dosage (500 mg/kg).

The subject of data set [5] is kidney disease model rats. Description: Renal function indicatory value (action to kidney diseases). The note with it: 20 mg/kg/day per os, two weeks; for Creatinine clearance: 24 hours urine, control 0.20; for Creatinine / Urea nitrogen: serum; for Creatinine: control 2.0; for Urea nitrogen: control 100. It counts as in vivo, Sprague-Dawley female rats. How it is done: The kidney disease model rats were prepared as in Example 115. Twenty-five groups (8 rats per group) were sleeked in a manner so that there were no major differences between each group in the serum creatinine value and the urea nitrogen value indicating renal function. The rats in each group were allowed to freely take up feed and water. […] To the rats in the control group, only water was forcedly administered per os every day. After two weeks, 0.2 ml of blood was collected from the carotid artery of the rat under anesthesia, and centrifuged to obtain serum. Using 25 μl of the serum, serum creatinine (Scr) was measured by a creatinine analytical instrument (Beckman). Using 10 μl of the serum, urea nitrogen (BUN) was measured by a BUN analytical instrument (Beckman). Creatinine clearance was evaluated as follows:
After serum creatinine measurement, rats were placed in urinary metabolic cages for 24 hours to collect urine. Urinary creatine concentration (Ucr) was measured by a creatinine analytical instrument, and total volume of urination (Uvol) was also measured. Creatinine clearance (CCr) was calculated by the following formula: [formula]

Where [6] appears, read: 100 μM, AT2, bovine cerebellar cortex, 37° C. 1 hour.
Setting [7] is: tracer 3H angiotensin II, room temperature 3 hours, read-out: IC50 AT1.
The mark [8] stands for this setting: mice, single oral 500 mg/kg, observed for 6 days, 5 per group.

Read-outs that look alike come from different tables or passages of the source.

For the compound `CCCCC(=O)N(Cc1ccc(C(=O)O)cc1)c1cc(C(=O)N2CCOCC2)ccc1C` [Compound No. 278, 4-methyl-3-N-[[4-(carboxyphenyl)methyl]valeramido]benzoic acid morpholide], in data set [1], the Average survival time amounted to 7.0 weeks. Besides, the inhibition at 100 µM in data set [2] (setting [6]) amounted to 0%. In addition, in data set [3], testing at 100 µM gave an inhibition of 4%. This compound also returned a Blood pressure in data set [4] of 198 mmHg. In addition, the “Number of deaths/number of survivals” value with mice (mouse, in vivo, po, 500 mg/kg) was 0/5. In data set [5], this compound displayed a Creatinine clearance of 0.36 mL/min, a Creatinine of 1.8 mg/dL and a Urea nitrogen of 73 mg/dL.

The compound `CCCCC(=O)N(Cc1ccc(C(=O)O)cc1)c1cc(C(=O)N2CCOCC2)ccc1C(C)C` [Compound No. 372, 3-N-[[(4-carboxyphenyl)methyl]valeramido]-4-isopropylbenzoicacid morpholide] displayed an Average survival time in data set [1] of 7.6 weeks. In addition, the inhibition at 100 µM in data set [2] (setting [6]) stood at 0%. In addition, the inhibition at 100 µM in data set [3] was 2%. The same compound yielded a Blood pressure in data set [4] of 190 mmHg. The “Number of deaths/number of survivals” value with mice (mouse, in vivo, po, 500 mg/kg) is listed as 0/5. In data set [5], this compound gave a Creatinine clearance of 0.36 mL/min, a Creatinine of 1.7 mg/dL and a Urea nitrogen of 72 mg/dL.

`CCCCC(=O)N(Cc1ccc(C(=O)O)cc1)c1cc(C(=O)N2CCOCC2)ccn1` [Compound No. 467, 2-N-[[(4-carboxyphenyl)methyl]valeramido]isonicotinic acid morpholide] had an Average survival time in data set [1] of 7.0 weeks. Moreover, in data set [2] (setting [6]), the inhibition at 100 µM is 0%. This compound also came in with an inhibition at 100 µM in data set [3] of 16%. For the same compound, the Blood pressure in data set [4] worked out at 200 mmHg. Moreover, the “Number of deaths/number of survivals” value in the data set with mice (mouse, in vivo, po, 500 mg/kg) is reported as 0/5. In data set [5], this compound displayed a Creatinine clearance of 0.25 mL/min, a Creatinine of 1.8 mg/dL and a Urea nitrogen of 74 mg/dL.

In turn, `CCCCCN(Cc1ccc(C(=O)O)cc1)c1cc(C(=O)N2CCOCC2)ccn1` [Compound No. 535, 2-[N-n-amyl-N-(4-carboxyphenyl)methyl]aminoisonicotinic acid morpholide] gave an Average survival time in data set [1] of 7.6 weeks. In addition, the inhibition at 100 µM in data set [2] (setting [6]) is 0%. Further, the concentration for half-maximal inhibition (IC50) in data set [3] (setting [7]) turned out to be 3800 nM. Besides, in data set [4], the Blood pressure worked out at 195 mmHg. In addition, in the data set with mice (mouse, in vivo, po, 500 mg/kg), the “Number of deaths/number of survivals” value is 0/5. In data set [5], this compound registered a Creatinine clearance of 0.38 mL/min, a Creatinine of 1.5 mg/dL and a Urea nitrogen of 72 mg/dL.

Compound `CCCCC(=O)Nc1ccc(C(=O)N2CCOCC2)cc1NCc1ccc(-c2ccccc2-c2nnn[nH]2)cc1` [Compound No. 585, 3-[[2'-(1H-tetrazol-5-yl)biphenyl-4-yl]methylamino]-4-valeramidobenzoic acid morpholide] came in with an Average survival time in data set [1] of 7.3 weeks. Also, the inhibition at 100 µM in data set [2] (setting [6]) worked out at 0%. In addition, the IC50 in data set [3] (setting [7]) was 1700 nM. The Blood pressure in data set [4] worked out at 196 mmHg. Further, the “Number of deaths/number of survivals” value in the data set on mice (setting [8]) is on record as 0/5. In data set [5], this compound came in with a Creatinine clearance of 0.35 mL/min, a Creatinine of 1.6 mg/dL and a Urea nitrogen of 72 mg/dL.

On to `CCCCC(=O)Nc1ccc(C(=O)N(CC)CC)cc1NCc1ccc(-c2ccccc2-c2nn[nH]n2)cc1` [Compound No. 586, [3-[[2'-(1H-tetrazol-5-yl)biphenyl-4-yl]methylamino]-4-valeramido]benzoic acid diethylamide], for which the Average survival time in data set [1] was 6.8 weeks. Also, the inhibition at 100 µM in data set [2] amounted to 0%. This compound showed an IC50 in data set [3] of 1200 nM. This compound gave a Blood pressure in data set [4] of 198 mmHg. Besides, the “Number of deaths/number of survivals” value in the data set with mice (setting [8]) is reported as 0/5. In data set [5], this compound had a Creatinine clearance of 0.33 mL/min, a Creatinine of 1.7 mg/dL and a Urea nitrogen of 76 mg/dL.

Compound `CCCCC(=O)Nc1ccc(C(=O)N2CCOCC2)cc1OCc1ccc(-c2ccccc2-c2nnn[nH]2)cc1` [Compound No. 587, 3-[[2'-(1H-tetrazol-5-yl)biphenyl-4-yl]methyloxy]-4-valeramidobenzoic acid morpholide] showed an Average survival time in data set [1] of 7.0 weeks. For the same compound, the inhibition at 100 µM in data set [2] (setting [6]) is 0%. In data set [3] (setting [7]), the IC50 turned out to be 7900 nM. This compound also came in with a Blood pressure in data set [4] of 201 mmHg. The “Number of deaths/number of survivals” value in the data set on mice (setting [8]) was 0/5. In addition, in data set [5], the Creatinine clearance was 0.34 mL/min, the Creatinine stood at 1.7 mg/dL and the Urea nitrogen is 77 mg/dL.

Consider `CCCCC(=O)N(Cc1ccc(-c2ccccc2-c2nn[nH]n2)cc1)c1cc(C(=O)N2CCOCC2)ccc1N(C)C` [Compound No. 591, 4-dimethylamino-3-N-[2'-[(1H-tetrazol-5-yl)biphenyl-4-yl]methyl]valeramidobenzoic acid morpholide], for which the Average survival time in data set [1] is given as 7.3 weeks. Moreover, the inhibition at 100 µM turned out to be 0% in data set [2] (setting [6]) and 35% in data set [3]. This compound had a Blood pressure in data set [4] of 199 mmHg. Moreover, the “Number of deaths/number of survivals” value in the data set with mice (mouse, in vivo, po, 500 mg/kg) is listed as 0/5. In data set [5], this compound showed a Creatinine of 1.6 mg/dL. In addition, the Urea nitrogen in data set [5] was determined as 76 mg/dL.

Source of the values: patent publication US5739131A, “Benzene derivatives and pharmaceutical composition” (Kureha Chemical Industry Co., Ltd., priority 1994, dated 1998).
